Here are results for ten compounds from patent publication US9512120B2, “Microbicidally active imidazopyridine derivatives” (Syngenta Participations AG, priority 2013, dated 2016).

SMILES strings stand for the structures.

In one data set the test system is Pyrenophora teres. The data set can be described thus: Pyrenophora teres / barley / leaf disc preventative (net blotch). Format: in vivo. To be noted: foliar, barley leaf segments cv Hasso, inoculated two days after application, assessed 5-7 days after application, read-out: control of Pyrenophora teres (disease control compared to untreated). A digest of the protocol:
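Preventative leaf-disc test: 200 ppm spray, then spore inoculation after two days on barley cv Hasso segments. Incubation 20 °C, 65% relative humidity, 12 h light/12 h dark; efficacy rated against untreated checks at 5-7 days post-application.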

Data set [1] concerns Thanatephorus cucumeris (Rhizoctonia solani). Description: Thanatephorus cucumeris (Rhizoctonia solani) / liquid culture (foot rot, damping-off). Format: cell-based. As to conditions: PDB, 24° C., 3-4 days after application, read-out: control of Thanatephorus cucumeris (inhibition of growth, photometric). An outline of the steps: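 At 200 ppm, compounds in DMSO were combined with fresh liquid-culture mycelia in PDB and kept at 24° C; photometric measurement of growth inhibition after 3-4 days.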

Data set [2] concerns Mycosphaerella graminicola (Septoria tritici). Description: Mycosphaerella graminicola (Septoria tritici) / liquid culture (Septoria blotch). Format: cell-based. As to conditions: Zymoseptoria tritici, PDB, 24° C., 4-5 days after application, read-out: control of Mycosphaerella graminicola (inhibition of growth, photometric). A digest of the protocol:
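Growth inhibition was read photometrically after 4–5 days at 24 °C. The test compound was applied at 200 ppm from DMSO solution, then PDB broth seeded with conidia taken straight from cryogenic storage was added.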

Data set [3] concerns Blumeria graminis f. Sp. Tritici (Erysiphe graminis f. Sp. Tritici). The data set can be described thus: Blumeria graminis f. sp. tritici / wheat / leaf disc preventative (powdery mildew on wheat). Format: in vivo. As to conditions: foliar, wheat leaf segments cv. Kanzler, inoculated 1 day after application, assessed 6-8 days after application, read-out: control of Blumeria graminis (percent disease control compared to untreated). The procedure: Blumeria graminis f. Sp. Tritici (Erysiphe graminis f. Sp. Tritici)/Wheat/Leaf Disc Preventative (Powdery Mildew on Wheat):
Wheat leaf segments cv. Kanzler were placed on agar in a 24-well plate and sprayed with the formulated test compound diluted in water at an application rate of 200 ppm. The leaf disks were inoculated by shaking powdery mildew infected plants above the test plates 1 day after application. The inoculated leaf disks were incubated at 20° C. and 60% relative humidity under a light regime of 24 h darkness followed by 12 h/12 h (dark/light) in a climate chamber and the activity of a compound was assessed as percent disease control compared to untreated when an appropriate level of disease damage appears on untreated check leaf segments (6-8 days after application). The following compounds gave at least 80% control of Blumeria graminis at 200 ppm when compared to untreated control leaf disks under the same conditions, which show extensive disease development: 2, 13, 23, 50, 59, 61, 67, 75, 85, 86, 89, 90, 93, 102, 103, 107, 134, 136, 137, 138, 139, 141, 145, 151, 153, 154, 163, 173, 174

In data set [4] the test system is Monographella nivalis (Microdochium nivale). The data set can be described thus: Monographella nivalis (Microdochium nivale) / liquid culture (foot rot cereals). Format: cell-based. As to conditions: PDB, 24° C., 4-5 days after application, read-out: control of Monographella nivalis (inhibition of growth, photometric). A digest of the protocol:
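Cryostored conidia in potato dextrose broth were added to test compound dispensed from DMSO at 200 ppm. Plates were kept at 24° C, and growth inhibition was read photometrically 4-5 days after application.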

Data set [5] concerns Botryotinia fuckeliana (Botrytis cinerea). The data set can be described thus: Botryotinia fuckeliana (Botrytis cinerea) / liquid culture (gray mould). Format: cell-based. To be noted: Vogels broth, 24° C., 3-4 days after application, read-out: control of Botryotinia fuckeliana (inhibition of growth, photometric). A digest of the protocol: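 Test compound was applied at 200 ppm in DMSO, then Vogels nutrient broth containing cryo-stored B. cinerea conidia was added. Photometric growth-inhibition reading followed after 3-4 days at 24 °C.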

The subject of data set [6] is Glomerella lagenarium (Colletotrichum lagenarium). Description: Glomerella lagenarium (Colletotrichum lagenarium) / liquid culture (anthracnose). Format: cell-based. To be noted: Colletotrichum orbiculare, PDB, 24° C., 3-4 days after application, read-out: control of Glomerella lagenarium (inhibition of growth, photometric). An outline of the steps: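 Test compound, delivered in DMSO at an application rate of 200 ppm, was combined with spore-containing PDB. Photometric growth-inhibition measurement followed 3-4 days of incubation at 24° C.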

The next data set has as its system Gaeumannomyces graminis. Description: Gaeumannomyces graminis / liquid culture (take-all of cereals). Format: cell-based. As to conditions: PDB, 24° C., 4-5 days after application, read-out: control of Gaeumannomyces graminis (inhibition of growth, photometric). A digest of the protocol: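 Growth inhibition, measured by photometry 4-5 days post-application at 24 °C, of fungal mycelial fragments in PDB broth. Test compound applied as DMSO solution at 200 ppm.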

The subject of data set [7] is Mycosphaerella arachidis (Cercospora arachidicola). The data set can be described thus: Mycosphaerella arachidis (Cercospora arachidicola) / liquid culture (early leaf spot). Format: cell-based. To be noted: PDB, 24° C., 4-5 days after application, read-out: control of Mycosphaerella arachidis (inhibition of growth, photometric). An outline of the steps:
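Conidia suspended in potato dextrose broth and added to test compound from DMSO solution at 200 ppm. Incubated at 24 °C; growth inhibition read photometrically 4-5 days after application.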

Data set [8] concerns Puccinia recondita f. sp. Tritici. The data set can be described thus: Puccinia recondita f. sp. tritici / wheat / leaf disc preventative (brown rust). Format: in vivo. As to conditions: foliar, wheat leaf segments cv Kanzler, inoculated 1 day after application, assessed 7-9 days after application, read-out: control of Puccinia recondita f. sp. Tritici (percent disease control compared to untreated). A digest of the protocol:
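Preventative test: percent disease control relative to untreated leaf segments was assessed 7-9 days post-application. Wheat (cv Kanzler) leaf discs were treated at 200 ppm and spore-inoculated 1 day afterwards. Discs were held at 19° C and 75% relative humidity under a 12/12 h light cycle.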

In the next data set the test system is Plasmopara viticola. The data set can be described thus: Plasmopara viticola / grape / leaf disc preventative. Format: in vivo. As to conditions: foliar, grape vine leaf disks, inoculated 1 day after application, assessed 6-8 days after application, read-out: control of Plasmopara viticola (percent disease control compared to untreated).
A further data set deals with Sclerotinia sclerotiorum. The data set can be described thus: Sclerotinia sclerotiorum liquid culture (cottony rot / white mold). Format: cell-based. As to conditions: PDB, 24° C., 3-4 days after application, read-out: control of Sclerotinia sclerotiorum (inhibition of growth, photometric). A digest of the protocol: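 Mycelia fragments of Sclerotinia sclerotiorum in potato dextrose broth were added to compound in DMSO. Cultures incubated at 24° C; growth inhibition determined photometrically 3-4 days after application.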

Data set [9] concerns Phaeosphaeria nodorum (Septoria nodorum). The data set can be described thus: Phaeosphaeria nodorum (Septoria nodorum) / wheat / leaf disc preventative (glume blotch). Format: in vivo. As to conditions: Parastagonospora nodorum, foliar, wheat leaf segments cv Kanzler, inoculated 2 days after application, assessed 5-7 days after application, read-out: control of Phaeosphaeria nodorum (percent disease control compared to untreated). A digest of the protocol: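 Wheat leaf segments (cv Kanzler) on agar sprayed with compound at 200 ppm, inoculated with spores 2 days later. Incubated at 20° C., 75% relative humidity, 12/12 h light/dark; percent disease control versus untreated scored 5-7 days after application.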

Usually inhibition stands for the share of the control response that was lost under treatment. What is called melting point is the temperature, or range, at which the solid turns liquid. In the case of `C=CCON=C(C)c1cncc2nc(-n3ncnc3N)n(CC)c12` [Compound 138], the melting point was 142 to 146 °C. Moreover, the pest or weed control at 200 ppm in the data set with Pyrenophora teres was at least 80%. The inhibition at 20 ppm in data set [1] was at least 80%. Also, the inhibition at 20 ppm in data set [2] is at least 80%. The pest or weed control at 200 ppm in data set [3] was at least 80%. Also, the inhibition at 20 ppm in [4] is at least 80%. The inhibition at 20 ppm in data set [5] is at least 80%. For the same compound, the inhibition at 20 ppm in [6] was at least 80%. The inhibition at 20 ppm with Gaeumannomyces graminis is at least 80%.
Regarding `CCn1c(-n2ncnc2N)nc2cncc(C(C)=NOCc3c(F)c(F)c(F)c(F)c3F)c21` [Compound 163], the pest or weed control at 200 ppm (with Pyrenophora teres; in data set [8]; in data set [3]; with Plasmopara viticola) was at least 80% in each case. Further, the inhibition at 20 ppm in [7], in [1], in [2], in data set [5] and in [6] was at least 80% in each case.
In turn, `CCn1c(-n2ncnc2N)nc2cncc(C3=CCN(C(=O)OC(C)(C)C)CC3)c21` [Compound 107, tert-butyl 4-[2-(5-amino-1,2,4-triazol-1-yl)-1-ethylimidazo[4,5-c]pyridin-7-yl]-3,6-dihydro-2H-pyridine-1-carboxylate] returned a melting point of 183 to 186 °C. Also, the pest or weed control at 200 ppm in data set [3] was at least 80%.
Consider `CCn1c(-n2ncnc2N)nc2cncc(C(C)=NOCc3ccc(C)cc3)c21` [Compound 139], for which the inhibition at 20 ppm (with Sclerotinia sclerotiorum; in data set [7]; in data set [1]; in data set [2]; in data set [4]; in data set [5]) was at least 80% throughout. The inhibition at 20 ppm (in [6]; with Gaeumannomyces graminis) was at least 80% each time. For the same compound, the pest or weed control at 200 ppm (in the data set with Pyrenophora teres; in data set [8]; in data set [3]; in the data set with Plasmopara viticola) was at least 80% each time.
With `CCn1c(-n2ncnc2N)nc2cncc(C(C)=NOCC3CC3)c21` [Compound 141], the melting point lay within 151 to 163 °C. Besides, the pest or weed control at 200 ppm in the data set with Pyrenophora teres was at least 80%. Besides, in data set [7], the inhibition at 20 ppm was at least 80%. The inhibition at 20 ppm in [1] was at least 80%. In data set [2], the inhibition at 20 ppm is at least 80%. For the same compound, in data set [3], the pest or weed control at 200 ppm is at least 80%. For the same compound, in [5], the inhibition at 20 ppm is at least 80%. Besides, the inhibition at 20 ppm in [6] was at least 80%. The inhibition at 20 ppm with Gaeumannomyces graminis is at least 80%.
Take `CCn1c(-n2ncnc2N)nc2cncc(C(C)=NOCc3ccc(Cl)cc3)c21` [Compound 145]: the inhibition at 20 ppm (with Sclerotinia sclerotiorum; in data set [1]; in [2]; in data set [4]; in data set [5]; in [6]) was at least 80% throughout. The pest or weed control at 200 ppm (in the data set on Pyrenophora teres; in [9]; in [8]; in data set [3]; with Plasmopara viticola) was at least 80% in each case.
`CCON=C(C)c1cncc2nc(-n3ncnc3N)n(CC)c12` [Compound 134]: the melting point fell in the range of 160 to 165 °C. Also, the pest or weed control at 200 ppm in the data set on Pyrenophora teres was at least 80%. The inhibition at 20 ppm in [7] is at least 80%. Also, the inhibition at 20 ppm in data set [1] was at least 80%. Besides, the pest or weed control at 200 ppm in data set [8] was at least 80%. Further, the inhibition at 20 ppm in data set [2] is at least 80%. In [3], the pest or weed control at 200 ppm is at least 80%. Also, in data set [4], the inhibition at 20 ppm was at least 80%. In addition, the inhibition at 20 ppm in [5] was at least 80%. Besides, the inhibition at 20 ppm with Gaeumannomyces graminis is at least 80%.
Turning to `CCn1c(-n2ncnc2N)nc2cncc(C(C)=NO)c21` [Compound 136, 1-[2-(5-amino-1,2,4-triazol-1-yl)-1-ethyl-imidazo[4,5-c]pyridin-7-yl]ethanone oxime], the melting point was 228 to 240 °C. For the same compound, the pest or weed control at 200 ppm with Pyrenophora teres was at least 80%. For the same compound, in data set [3], the pest or weed control at 200 ppm is at least 80%. For the same compound, in data set [6], the inhibition at 20 ppm is at least 80%. Besides, the inhibition at 20 ppm in the data set with Gaeumannomyces graminis is at least 80%.
Take `CCn1c(-n2ncnc2N)nc2cncc(/C(C)=N/OC/C=C(\C)Cl)c21` [Compound 154, 2-[7-[(E)-N-[(E)-3-chlorobut-2-enoxy]-C-methyl-carbonimidoyl]-1-ethyl-imidazo[4,5-c]pyridin-2-yl]-1,2,4-triazol-3-amine]: the inhibition at 20 ppm (in the data set on Sclerotinia sclerotiorum; in data set [1]; in [2]; in data set [5]; in [6]) was at least 80% in each case. In addition, the pest or weed control at 200 ppm (with Pyrenophora teres; in [8]; in data set [3]; in the data set with Plasmopara viticola) was at least 80% in each case.
As to `C=C(Cl)CO/N=C(/C)c1cncc2nc(-n3ncnc3N)n(CC)c12` [Compound 151], the inhibition at 20 ppm (with Sclerotinia sclerotiorum; in [1]; in [2]; in data set [4]; in data set [5]; in data set [6]) was at least 80% in each case. The pest or weed control at 200 ppm (in the data set with Pyrenophora teres; in data set [9]; in [8]; in data set [3]; in the data set on Plasmopara viticola) was at least 80% throughout.
